Source: paper PMC8506265 (Bioorganic & medicinal chemistry, 2021)
pIC50: −log10 of the molar value.

Legend:
[1] = biological target: T1, human CB1 (Homo sapiens, UniProt P21554); assay: [35S]GTPγS binding assay, hCB1 HEK293 membranes; format: biochemical
[2] = biological target: T1, human CB1; assay: BRET CAMYEL cAMP assay in HEK293 3HA-hCB1 cells; format: cell-based
[3] = biological target: T1, human CB1; assay: hCB1 calcium mobilization assay
[4] = biological target: T1, human CB1; format: biochemical; conditions: operational model of allosterism; probe CP55,940

T1 sequence (P21554 whole entry): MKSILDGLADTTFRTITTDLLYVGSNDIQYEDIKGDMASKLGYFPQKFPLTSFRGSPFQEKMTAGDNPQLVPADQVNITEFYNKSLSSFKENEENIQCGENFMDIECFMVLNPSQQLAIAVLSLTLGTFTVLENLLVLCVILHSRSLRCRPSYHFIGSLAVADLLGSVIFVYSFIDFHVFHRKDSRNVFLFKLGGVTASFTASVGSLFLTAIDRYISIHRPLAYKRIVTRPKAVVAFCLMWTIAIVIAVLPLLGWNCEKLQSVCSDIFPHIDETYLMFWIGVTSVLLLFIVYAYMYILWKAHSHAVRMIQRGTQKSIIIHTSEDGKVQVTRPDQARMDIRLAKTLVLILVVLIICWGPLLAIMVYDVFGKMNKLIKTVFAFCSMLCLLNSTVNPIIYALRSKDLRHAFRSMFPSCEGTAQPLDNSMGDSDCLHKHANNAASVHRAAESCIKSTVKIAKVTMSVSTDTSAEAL

Row | pIC50 [1] | potency in the cAMP assay [2] | pIC50 [3] | Compound | further results
1 | 4.90 | low micromolar range | 6.60 | Cc1ccc(CCNC(=O)Nc2ccc(Cl)cc2)o1 [Compound 26, 1‐(4‐Chlorophenyl)‐3‐[2‐(5‐methylfuran‐2‐yl)ethyl]urea] | pIC50 [2]: 5.40
2 | 5.10 |  | 6.10 | O=C(NCCc1cccs1)Nc1ccc(Cl)cc1 [Compound 25, 1-(4-Chlorophenyl)-3-[2-(thiophen-2-yl)ethyl]urea] | 
3 | 5.10 |  | 5.80 | O=C(NCCc1ccsc1)Nc1ccc(Cl)cc1 [Compound 24, 1-(4-Chlorophenyl)-3-[2-(thiophen-3-yl)ethyl]urea] | 
4 |  |  | < 5.00 | CC(C)(CNC(=O)Nc1ccc(Cl)cc1)c1ccccc1 [Compound 15, 1-(4-Chlorophenyl)-3-(2-methyl-2-phenylpropyl)urea] | 
5 |  | low micromolar range |  | CN(C)c1ccc(CCNC(=O)Nc2ccc(Cl)cc2)cc1 [Compound 12, 3‐(4‐Chlorophenyl)‐1‐{2‐[4‐(dimethylamino)phenyl]ethyl}-urea] | 
6 |  |  | < 5.00 | O=C(Nc1ccc(Cl)cc1)NC1(Cc2ccccc2)CC1 [Compound 19, 1-(1-Benzylcyclopropyl)-3-(4-chlorophenyl)urea] | 
7 |  |  | < 5.00 | O=C(NCc1ccccc1)Nc1ccc(Cl)cc1 [Compound 13, 3‐(4‐Chlorophenyl)‐1‐(3‐phenylmethyl)urea] | 
8 |  |  |  | O=C(NCCc1ccc(N2CCCCC2)cc1)Nc1ccc(Cl)cc1 [Compound 9, 1-(4-Chlorophenyl)-3-{2-[4-(piperidin-1-yl)phenyl]ethyl}-urea] | alpha (binding cooperativity) [4]: 5.1; beta (modification of probe efficacy) [4]: 0.09; logalpha (binding cooperativity) [4]: 0.7 ± 0.1; logbeta (modification of probe efficacy) [4]: −1.1 ± 0.1

Row | Compound | pIC50 [1] | potency in the cAMP assay [2] | pIC50 [3] | further results
9 | O=C(NCCc1ccccc1)Nc1ccc(Cl)cc1 [Compound 8, 3‐(4‐Chlorophenyl)‐1‐(2‐phenylethyl)urea] |  | low micromolar range |  | 
10 | CC(C)(Cc1ccccc1)NC(=O)Nc1ccc(Cl)cc1 [Compound 16, 1-(4-Chlorophenyl)-3-(2-methyl-1-phenylpropan-2-yl)urea] |  |  | < 5.00 | 
